Laboratory results reported in patent publication US7381824B2 (Agouron Pharmaceuticals, Inc., priority 2003, dated 2008).

The compounds below were run against T1, human vascular endothelial growth factor receptor 2 (VEGF-R2) (Homo sapiens, UniProt P35968, DEL940-989/E990V) (assay: VEGF-R2 coupled spectrophotometric assay (FLVK, unphosphorylated VEGF-R2D50)). Settings: unphosphorylated VEGF-R2D50 (FLVK).
T1 construct: VEGF-R2D50 contains residues 806-939 and 990-1171; made in house; host or cells: baculovirus/insect cell system
T1 sequence (P35968 with tags, fused parts or gaps DEL940-989/E990V limits assumed): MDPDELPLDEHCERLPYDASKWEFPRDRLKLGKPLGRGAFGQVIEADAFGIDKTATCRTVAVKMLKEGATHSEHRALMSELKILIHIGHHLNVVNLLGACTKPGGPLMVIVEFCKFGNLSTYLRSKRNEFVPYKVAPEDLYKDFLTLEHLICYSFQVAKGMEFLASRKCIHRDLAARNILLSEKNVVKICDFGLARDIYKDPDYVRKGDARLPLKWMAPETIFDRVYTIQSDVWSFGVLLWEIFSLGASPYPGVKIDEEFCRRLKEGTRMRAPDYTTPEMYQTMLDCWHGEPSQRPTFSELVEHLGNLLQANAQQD
Format: biochemical
Source text: This construct determines the ability of a test compound to inhibit tyrosine kinase activity. A construct (VEGF-R2D50) of the cytosolic domain of human vascular endothelial growth factor receptor 2 (VEGF-R2) lacking the 50 central residues of the 68 residues of the kinase insert domain was expressed in a baculovirus/insect cell system. Of the 1356 residues of full-length VEGF-R2, VEGF-R2D50 contains residues 806-939 and 990-1171, and also one point mutation (E990V) within the kinase insert domain relative to wild-type VEGF-R2. Autophosphorylation of the purified construct was performed by incubation of the enzyme at a concentration of […] in the presence of 3 mM ATP and 40 mM MgCl2 in 100 mM HEPES, pH 7.5, containing 5% glycerol and 5 mM DTT, at 4° C. for 2 h. […] See Parast et al., Biochemistry, 37, 16788-16801 (1998).
VEGF-R2 Assay: Coupled Spectrophotometric (FLVK-P) Assay
The production of ADP from ATP that accompanies phosphoryl transfer was coupled to oxidation of NADH using phosphoenolpyruvate (PEP) and a system having pyruvate kinase (PK) and lactic dehydrogenase (LDH). The oxidation of NADH was monitored by following the decrease of absorbance at 340 nm (e340=6.22 cm^−1 mM^−1) using a Beckman DU 650 spectrophotometer. Assay conditions for phosphorylated VEGF-R2D50 (indicated as FLVK-P in the tables below) were the following: 1 mM PEP; […] NADH; 50 units of LDH/mL; 20 units of PK/mL; 5 mM DTT; 5.1 mM poly(E4Y1); 1 mM ATP; and 25 mM MgCl2 in 200 mM HEPES, pH 7.5. Assay conditions for unphosphorylated VEGF-R2D50 (indicated as FLVK in the tables) were the following: 1 mM PEP; […] NADH; 50 units of LDH/mL; 20 units of PK/mL; 5 mM DTT; 20 mM poly(E4Y1); 3 mM ATP; and 60 mM MgCl2 and 2 mM MnCl2 in 200 mM HEPES, pH 7.5. Assays were initiated with 5 to 40 nM of enzyme. K1 values were determined by measuring enzyme activity in the presence of varying concentrations of test compounds. The percent inhibition at 50 nM (% inhibition @ 50 nM) was determined by linear least-squares regression analysis of absorbance as a function of time. The binding inhibitions were fitted to equation as described by Morrison. The data were analyzed using Enzyme Kinetic and Kaleidagraph software.
For `CNC(=O)c1c(C)oc2cc(Oc3ccnc4cc(-c5ccncc5)ccc34)ccc12` [Example 7, N-2-dimethyl-6-[(7-pyridin-4-ylquinolin-4-yl)oxy]-1-benzofuran-3-carboxamide], the Ki was less than 0.001 µM.
With `CNC(=O)n1c(C)cc2cc(Nc3ccnc4cc(-c5cccnc5)ccc34)ccc21` [Example 12, N,2-dimethyl-5-[(7-pyridin-3-ylquinolin-4-yl)amino]-1H-indole-1-carboxamide] the Ki was greater than 0.01 µM.
Compound `CNC(=O)c1c(C)oc2cc(Oc3ccnc4cc(C(=O)N5CCC[C@H]5COC)ccc34)ccc12` [Example 15, 6-[(7-([(2S)-2-(methoxymethyl)pyrrolidin-1-yl]carbonyl}quinolin-4-yl)oxy]-N,2-dimethyl-1-benzofuran-3-carboxamide] has a Ki of 0.001 to 0.01 µM.
Work on `CNC(=O)c1c(C)sc2cc(Oc3ccnc4cc(C(=O)N5CCC[C@H]5COC)ccc34)ccc12` [Example 16, 6-[(7-{[(2S)-2-(methoxymethyl)pyrrolidin-1-yl]carbonyl)quinolin-4-yl)oxy]-N,2-dimethyl-1-benzothiophene-3-carboxamide] yielded a Ki greater than 0.01 µM.
`CNC(=O)c1c(C)sc2cc(Oc3ccnc4cc(-c5ncccn5)ccc34)ccc12` [Example 18, N,2-dimethyl-6-[(7-pyrimidin-2-ylquinolin-4-yl)oxy]-1-benzothiophene-3-carboxamide] showed a Ki greater than 0.01 µM.
`CNC(=O)c1c(C)sc2cc(Oc3ccnc4cc(Br)ccc34)ccc12` [Example 20, 6-[(7-bromoquinolin-4-yl)oxy]-N,2-dimethy-1-benzothiophene-3-carboxamide] showed a Ki greater than 0.01 µM.
In the case of `CNC(=O)c1c(C)sc2cc(Oc3ccnc4ccc(-c5ccncc5)cc34)ccc12` [Example 23, N,2-dimethyl-6-[(6-pyridin-4-ylquinolin-4-yl)oxy]-1-benzothiophene-3-carboxamide], the Ki is reported as greater than 0.01 µM.
`CNC(=O)c1c(C)oc2cc(Oc3ccnc4ccc(-c5ccncc5)cc34)ccc12` [Example 24, N,2-dimethyl-6-[(6-pyridin-4-ylquinolin-4-yl)oxy]-1-benzofuran-3-carboxamide] gave a Ki of 0.001 to 0.01 µM.
With `CNC(=O)c1c(C)sc2cc(Oc3ccnc4ccc(O)cc34)ccc12` [Example 27, 6-[(6-hydroxyquinolin-4-yl)oxy]-N,2-dimethyl-1-benzothiophene-3-carboxamide] the Ki was greater than 0.01 µM.
Work on `CNC(=O)c1c(C)oc2cc(Oc3ccnc4cc(-c5nccs5)ccc34)ccc12` [Example 30] yielded a Ki of less than 0.001 µM.
In the case of `CNC(=O)c1c(C)oc2cc(Oc3ccnc4cc(OCc5ccccn5)ccc34)ccc12` [Example 33], the Ki is reported as 0.001 to 0.01 µM.
For `COc1ccc2c(Oc3ccc4c(C(=O)NCCN(C)C)c(C)sc4c3)ccnc2c1` [Example 49, N-[2-(dimethylamino)ethyl]-6-[(7-methoxyquinolin-4-yl)oxy]-2-methyl-1-benzothiophene-3-carboxamide], the Ki was greater than 0.01 µM.
`COc1ccc2c(Oc3ccc4c(C(=O)NCc5cccnc5)c(C)sc4c3)ccnc2c1` [Example 54, 6-[(7-methoxyquinolin-4-yl)oxy]-2-methyl-N-(pyridin-3-ylmethyl)-1-benzothiophene-3-carboxamide] gave a Ki greater than 0.01 µM.
`CCCNC(=O)c1c(C)sc2cc(Oc3ccnc4cc(O)ccc34)ccc12` [Example 55, 6-[(7-hydroxyquinolin-4-yl)oxy]-2-methyl-N-propyl-1-benzothiophene-3-carboxamide] showed a Ki greater than 0.01 µM.
Compound `Cc1sc2cc(Oc3ccnc4cc(O)ccc34)ccc2c1C(=O)NC1CCCC1` [Example 56, N-cyclopentyl-6-[(7-hydroxyquinolin-4-yl)oxy]-2-methyl-1-benzothiophene-3-carboxamide] has a Ki greater than 0.01 µM.
Work on `Cc1sc2cc(Oc3ccnc4cc(O)ccc34)ccc2c1C(=O)NCCN(C)C` [Example 57, N-[2-(dimethylamino)ethyl]-6-[(7-hydroxyquinolin-4-yl)oxy]-2-methyl-1-benzothiophene-3-carboxamide] yielded a Ki greater than 0.01 µM.
With `CNC(=O)c1c(C)sc2cc(Oc3ccnc4cc(C(F)(F)F)ccc34)ccc12` [Example 60, N,2-dimethyl-6-{[7-(trifluoromethyl)quinolin-4-yl]oxy}-1-benzothiophene-3-carboxamide] the Ki was greater than 0.01 µM.
`CNC(=O)c1c(C)oc2cc(Oc3ccnc4cc(C(F)(F)F)ccc34)ccc12` [Example 61, N,2-dimethyl-6-{[7-(trifluoromethyl)quinolin-4-yl]oxy}-1-benzofuran-3-carboxamide] gave a Ki greater than 0.01 µM.
Compound `COc1ccc2c(Oc3ccc4c(C(=O)NC(C)C)c(C)sc4c3)ccnc2c1` [Example 71, N-isopropyl-6-[(7-methoxyquinolin-4-yl)oxy]-2-methyl-1-benzothiophene-3-carboxamide] has a Ki of 0.001 to 0.01 µM.
Work on `CNC(=O)c1c(C)n(C)c2cc(Oc3ccnc4cc(OC)ccc34)ccc12` [Example 75, [(7-methoxyquinolin-4-yl)oxy]-N,1,2-trimethyl-1H-indole-3-carboxamide] yielded a Ki greater than 0.01 µM.
Compound `CNC(=O)c1c(C)n(C)c2cc(Oc3ccnc4cc(O)ccc34)ccc12` [Example 76] has a Ki greater than 0.01 µM.
`CNC(=O)c1c(C)n(C)c2cc(Oc3ccnc4cc(OCCN5CCOCC5)ccc34)ccc12` [Example 77, N,1,2-trimethyl-6-{[7-(2-morpholin-4-ylethoxy)quinolin-4-yl]oxy}-1H-indole-3-carboxamide] gave a Ki greater than 0.01 µM.
`CNC(=O)c1c(C)n(C)c2cc(Oc3ccnc4cc(OCCN5CCCC5)ccc34)ccc12` [Example 78, N,1,2-trimethyl-6-{[7-(2-pyrrolidin-1-ylethoxy)quinolin-4-yl]oxy}-1H-indole-3-carboxamide] was tested, and the Ki was greater than 0.01 µM.
With `CNC(=O)c1c(C)n(C)c2cc(Oc3ccnc4cc(OCCN5CCCCC5)ccc34)ccc12` [Example 79, N,1,2-trimethyl-6-{[7-(2-piperidin-1-ylethoxy)quinolin-4-yl]oxy}-1H-indole-3-carboxamide] the Ki was greater than 0.01 µM.
Compound `COc1ccc2c(Oc3ccc4c(C(=O)NCC(C)O)c(C)sc4c3)ccnc2c1` (stereo not shown) [Example 80, N(2-hydroxypropyl)-6-[(7-methoxyquinolin-4-yl)oxy]-2-methyl-1-benzothiophene3-carboxamide] has a Ki greater than 0.01 µM.
In the case of `CCC(O)CNC(=O)c1c(C)sc2cc(Oc3ccnc4cc(OC)ccc34)ccc12` (stereo not shown) [Example 81, N-(2-hydroxybutyl)-6-[(7-methoxyquinolin-4-yl)oxy]-2-methyl-1-benzothiophene-3-carboxamide], the Ki is reported as greater than 0.01 µM.
For `COc1ccc2c(Oc3ccc4c(C(=O)NCCC(C)O)c(C)sc4c3)ccnc2c1` (stereo not shown) [Example 82, N-(3-hydroxybutyl)-6-[(7-methoxyquinolin-4-yl)oxy]-2-methyl-1-benzothiophene-3-carboxamide], the Ki was greater than 0.01 µM.
`CNC(=O)c1c(C)oc2cc(Oc3ccnc4cc(OCC5OCCO5)ccc34)ccc12` [Example 83, 6-{[7-(1,3-dioxolan-2-ylmethoxy)quinolin-4-yl]oxy}-N,2-dimethyl-1-benzofuran-3-carboxamide] gave a Ki of less than 0.001 µM.
With `COc1ccc2c(Oc3ccc4c(C(=O)NC[C@@H]5CCCO5)c(C)oc4c3)ccnc2c1` [Example 85, 6-[(7-methoxyquinolin-4-yl)oxy]-2-methyl-N-[(2S)-tetrahydrofuran-2-ylmethyl]-1-benzofuran-3-carboxamide] the Ki was greater than 0.01 µM.
`COCC(C)NC(=O)c1c(C)oc2cc(Oc3ccnc4cc(OC)ccc34)ccc12` (stereo not shown) [Example 87, 6-[(7-methoxyquinolin-4-yl)oxy]-2-methyl-N-[2-methoxy-1-methyl-ethyl]-1-benzofuran-3-carboxamide] showed a Ki greater than 0.01 µM.
`Cc1oc2cc(Oc3ccnc4cc(-c5ncccn5)ccc34)ccc2c1C(=O)NC1CC1` [Example 89, N-cyclopropyl-2-methyl-6-[(7-pyrimidin-2-ylquinolin-4-yl)oxy]-1-benzofuran-3-carboxamide] was tested, and the Ki was less than 0.001 µM.
`CNCCOc1ccc2c(Oc3ccc4c(C(=O)NC5CC5)c(C)oc4c3)ccnc2c1` [Example 90, N-cyclopropyl-2-methyl-6-({7-[2-(methylamino)ethoxy]quinolin-4-yl}oxy)-1-benzofuran-3-carboxamide] showed a Ki of less than 0.001 µM.
`CCN(CC)CCOc1ccc2c(Oc3ccc4c(C(=O)NC5CC5)c(C)oc4c3)ccnc2c1` [Example 91, N-cyclopropyl-2-methyl-6-({7-[2-(diethylamino)ethoxy]quinolin-4-yl}oxy)-1-benzofuran-3-carboxamide] showed a Ki of less than 0.001 µM.
`Cc1oc2cc(Oc3ccnc4cc(OCCO)ccc34)ccc2c1C(=O)NC1CC1` [Example 92, N-cyclopropyl-2-methyl-6-({7-[2-hydroxy-ethoxy]quinolin-4-yl}oxy)-1-benzofuran-3-carboxamide] was tested, and the Ki was less than 0.001 µM.
